This note sets out measurements from patent US8383094B2, “Hepatitis C virus inhibitors” (Bristol-Myers Squibb Company, priority 2008, dated 2013).

Bounds are passed on as bounds.

In the first test the test system is HCV 1b genotype. As to the kind of experiment: HCV Replicon assay (HCV-neo replicon cells, wild-type). The class given is cell-based. As to conditions: HCV 1b genotype replicon; range class A-D; read-out: 1b EC50 (in μM or range). (In general: Replicon systems follow genome replication, usually without infectious particles.)
A word on the EC50: it is the midpoint of the concentration-response curve. Consider `CN1Cc2ccccc2C1C(=O)N1CCC[C@H]1C(=O)Nc1ccc(C#Cc2ccc(NC(=O)[C@@H]3CCCN3C(=O)C3c4ccccc4CN3C)cc2)cc1` (stereo partly drawn) [VN40, (2S,2′S)-N,N′-(1,2-ethynediyldi-4,1-phenylene)bis(1-((2-methyl-2,3-dihydro-1H-isoindol-1-yl)carbonyl)-2-pyrrolidinecarboxamide)], for which the EC50 was 0.00457 to 0.099 µM.

The same test, now with this note: Hepatitis C virus, HCV 1b genotype replicon; range class A-D; read-out: 1b EC50 (in μM or range).
On to `O=C(Nc1ccc(C#Cc2ccc(NC(=O)[C@@H]3CCCN3C(=O)Cc3ccccc3)nc2)cn1)[C@@H]1CCCN1C(=O)Cc1ccccc1` [Example D48, (2S,2′S)-N,N′-(1,2-ethynediyldi-5,2-pyridinediyl)bis(1-(phenylacetyl)-2-pyrrolidinecarboxamide)], for which the EC50 is < 0.00457 µM.
Still for that read-out and setting: the same measure for `CC(=O)N[C@@H](C)C(=O)N1CCC[C@H]1C(=O)Nc1ccc(C#Cc2ccc(NC(=O)[C@@H]3CCCN3C(=O)[C@H](C)NC(C)=O)cc2)cc1` [VN15, (2S,2′S)-N,N′-(1,2-ethynediyldi-4,1-phenylene)bis(1-((2S)-2-acetamidopropanoyl)-2-pyrrolidinecarboxamide)]: 0.1 to 0.999 µM; for `C[C@@H](C(=O)N1CCC[C@H]1C(=O)Nc1ccc(C#Cc2ccc(NC(=O)[C@@H]3CCCN3C(=O)[C@H](C)c3ccccc3)nc2)cn1)c1ccccc1` [Example D50, (2S,2′S)-N,N′-(1,2-ethynediyldi-5,2-pyridinediyl)bis(1-((2R)-2-phenylpropanoyl)-2-pyrrolidinecarboxamide)]: < 0.00457 µM.
On the same count and under the same terms, in the case of `CCN(C)C(C(=O)N1CCC[C@H]1C(=O)Nc1ccc(C#Cc2ccc(NC(=O)[C@@H]3CCCN3C(=O)C(c3ccccc3)N(C)CC)cc2)cc1)c1ccccc1` (single isomer, unassigned) [VN36] it was < 0.00457 µM; in that of `CN(C)[C@H](C(=O)N1CCC[C@H]1C(=O)Nc1ccc(C#Cc2ccc(NC(=O)[C@@H]3CCCN3C(=O)[C@H](c3ccccc3)N(C)C)cc2)cc1)c1ccccc1` [VN22, (2S,2′S)-N,N′-(1,2-ethynediyldi-4,1-phenylene)bis(1-((2S)-2-(dimethylamino)-2-phenylacetyl)-2-pyrrolidinecarboxamide)], < 0.00457 µM.
